Test results as given in patent publication US9708259B2 (Hoffmann-La Roche Inc., priority 2013, dated 2017).
Changes are numbered by the printed parent chain.

What was measured:
[1] = target: T1, human M1 (Homo sapiens, UniProt P11229); assay: M1 PAM assay (FLIPR intracellular calcium), human M1; assay type: cell-based; conditions: CHO human M1 cells, FLIPR Ca2+, with EC20 of acetylcholine; first value of the cell; read-out: hM1 EC50
T1 construct: expressed in transfected cells; host or cells: CHO cells
T1 sequence (P11229 1-460): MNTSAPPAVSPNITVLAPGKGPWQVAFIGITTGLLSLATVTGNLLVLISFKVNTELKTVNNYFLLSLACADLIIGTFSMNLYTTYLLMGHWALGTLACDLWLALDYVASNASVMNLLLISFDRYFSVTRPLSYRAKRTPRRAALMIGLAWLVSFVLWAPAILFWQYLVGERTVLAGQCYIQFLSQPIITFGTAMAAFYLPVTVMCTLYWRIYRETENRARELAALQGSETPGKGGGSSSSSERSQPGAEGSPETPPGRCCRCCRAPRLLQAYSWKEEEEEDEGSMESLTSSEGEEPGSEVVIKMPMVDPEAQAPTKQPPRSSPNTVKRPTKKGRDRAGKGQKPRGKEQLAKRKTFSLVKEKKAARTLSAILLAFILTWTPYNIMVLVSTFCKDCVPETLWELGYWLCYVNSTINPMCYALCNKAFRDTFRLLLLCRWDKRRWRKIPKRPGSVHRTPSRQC
Protocol: The assay study the effect of several concentrations of test compounds on basal or acetylcholine-stimulated Ca^2+ levels using FLIPR.
CHO human M1 are plated the day before the experiments at 2×10^5 cells/ml in PDL BioCoat 96 well black/clear plate (Becton 35 4640). The cells are grown at 37° C. and 5% CO2 in the following medium: F12 Nut Mix (Gibco 21765), 10% FCS heat inactivated (GIBCO 16000-044), 1% Pen Strep (Gibco,15140) and 200 μg/ml Geneticin (Gibco 11811). On the day of the experiment, the medium was removed and replaced by […] of dye loading buffer containing Hanks Balanced Salt solution (HBSS, 14065-049, Gibco) with 20 mM HEPES (Gibco 15630-056), 2 mM Probenicid (Sigma P8761), […] ester (Molecular Probes F-14202), 10% Pluronic acid Molecular Probes P-3000) pH=7.4 and incubated at 37° C. After 60 minutes extracellular dye was removed and the cells were washed five times with FLIPR buffer containing HBSS (Gibco 14065-049) with 20 mM HEPES (Gibco, 15630-056), 2 mM Probenicid (Sigma P8761) pre-warmed at 37° C. using and Ebml cell washer leaving […] of FLIPR buffer in each well. The cell plate and the diluted compounds (1% DMSO final concentration) are placed on the platform of the FLIPR and the door closed. A signal test to check background fluorescence and basal fluorescence signal is performed. Laser intensity is adjusted if necessary. Two minutes preincubation with the diluted test compounds is provide to determine any agonist activity on the M1 receptor by comparison to 30 nM Acetylcholine control. In order to determine any modulator activity the diluted compounds were added to cells and after two minutes preincubation, the EC20 of acetylcholine is added followed by another two minutes preincubation before the measurement of intracellular Ca^2+ with a FLIPR (Molecular Devices).

[2] = target: T2, ratM1 (Rattus norvegicus, UniProt P08482); assay: M1 PAM assay (FLIPR intracellular calcium), rat M1; assay type: cell-based; conditions: rat M1, FLIPR Ca2+; second value of the cell; read-out: ratM1 EC50
T2 construct: expressed in transfected cells; host or cells: CHO cells (stated generally for the assay, not specifically for rat M1)
T2 sequence (P08482 1-460): T1 sequence (P11229 1-460) with A5V, T254S, P309S, R320K, A337G, I413V

For Cn1cc(-c2ccc(Cn3cc(C(=O)N[C@@H]4CCOC[C@H]4O)c4c(F)cccc43)c(F)c2)cn1 (single isomer, unassigned) [Example 70, 4-Fluoro-1-(2-fluoro-4-(1-methyl-1H-pyrazol-4-yl)benzyl)-N-((3S,4R) or (3R,4S)-3-hydroxytetrahydro-2H-pyran-4-yl)-1H-indole-3-carboxamide], the EC50 [1] was 102 nM and the EC50 [2] was 284 nM.
In the case of Cn1cc(-c2ccc(Cn3cc(C(=O)N[C@H]4CCOC[C@@H]4O)c4c(F)cccc43)c(F)c2)cn1 (single isomer, unassigned) [Example 71, 4-Fluoro-1-(2-fluoro-4-(1-methyl-1H-pyrazol-4-yl)benzyl)-N-((3R,4S) or (3S,4R)-3-hydroxytetrahydro-2H-pyran-4-yl)-1H-indole-3-carboxamide], the EC50 [1] is reported as 5.92 nM and the EC50 [2] is reported as 12 nM.
Work on Cn1cc(-c2ccc(Cn3cc(C(=O)N[C@H]4CCCC[C@@H]4O)c4c(F)cccc43)c(F)c2)cn1 [Example 1] yielded an EC50 [1] of 5.64 nM and an EC50 [2] of 62.6 nM.
In the case of Cn1cc(-c2ccc(Cn3cc(C(=O)N[C@@H]4CCCC[C@H]4O)c4c(F)cccc43)c(F)c2)cn1 [Example 2], the EC50 [1] is reported as 39 nM and the EC50 [2] is reported as 208 nM.
Cn1cc(-c2ccc(Cn3nc(C(=O)N[C@H]4CCCC[C@@H]4O)c4c(F)cccc43)c(F)c2)cn1 [Example 3, 4-fluoro-1-(2-fluoro-4-(1-methyl-1H-pyrazol-4-yl)benzyl)-N-((1S,2S)-2-hydroxycyclohexyl)-1H-indazole-3-carboxamide] showed an EC50 [1] of 25.2 nM and an EC50 [2] of 90.6 nM.
Work on Cn1cc(-c2ccc(Cn3nc(C(=O)N[C@@H]4CCCC[C@H]4O)c4c(F)cccc43)c(F)c2)cn1 [Example 4, 4-fluoro-1-(2-fluoro-4-(1-methyl-1H-pyrazol-4-yl)benzyl)-N-((1R,2R)-2-hydroxycyclohexyl)-1H-indazole-3-carboxamide] yielded an EC50 [1] of 295 nM and an EC50 [2] of 1290 nM.
Cn1cc(-c2ccc(Cn3cc(C(=O)N[C@H]4CCCC[C@@H]4O)c4c(F)cc(F)cc43)c(F)c2)cn1 [Example 5, 4,6-difluoro-1-(2-fluoro-4-(1-methyl-1H-pyrazol-4-yl)benzyl)-N-((1S,2S)-2-hydroxycyclohexyl)-1H-indole-3-carboxamide] gave an EC50 [1] of 83.8 nM and an EC50 [2] of 231 nM.
Work on CO[C@H]1COC[C@@H]1NC(=O)c1cn(Cc2ccc(-c3cnn(C)c3)cc2)c2cccc(F)c12 [Example 8, 4-fluoro-N-[(3S,4R)-4-methoxyoxolan-3-yl]-1-[[4-(1-methylpyrazol-4-yl)phenyl]methyl]indole-3-carboxamide] yielded an EC50 [1] of 278 nM and an EC50 [2] of 427 nM.
Work on Cn1cc(-c2ccc(Cn3cc(C(=O)NC4CC(F)(F)C4)c4c(F)cccc43)cc2)cn1 [Example 9, N-(3,3-difluorocyclobutyl)-4-fluoro-1-(4-(1-methyl-1H-pyrazol-4-yl)benzyl)-1H-indole-3-carboxamide] yielded an EC50 [1] of 365 nM and an EC50 [2] of 411 nM.
Cn1cc(-c2ccc(Cn3cc(C(=O)NC[C@H]4CCCO4)c4c(F)cccc43)cc2)cn1 [Example 10, (R)-4-fluoro-1-(4-(1-methyl-1H-pyrazol-4-yl)benzyl)-N-((tetrahydrofuran-2-yl)methyl)-1H-indole-3-carboxamide] showed an EC50 [1] of 256 nM and an EC50 [2] of 398 nM.
In the case of Cn1cc(-c2ccc(Cn3cc(C(=O)NC4CCC4)c4c(F)cccc43)cc2)cn1 [Example 11, N-cyclobutyl-4-fluoro-1-(4-(1-methyl-1H-pyrazol-4-yl)benzyl)-1H-indole-3-carboxamide], the EC50 [1] is reported as 413 nM and the EC50 [2] is reported as 618 nM.
Work on Cn1cc(-c2ccc(Cn3cc(C(=O)NC4CCCOC4)c4c(F)cccc43)cc2)cn1 (centres unmarked) [Example 12, 4-fluoro-1-(4-(1-methyl-1H-pyrazol-4-yl)benzyl)-N-(tetrahydro-2H-pyran-3-yl)-1H-indole-3-carboxamide] yielded an EC50 [1] of 129 nM and an EC50 [2] of 398 nM.
Cn1cc(-c2ccc(Cn3cc(C(=O)NCC4COC4)c4c(F)cccc43)cc2)cn1 [Example 13, 4-fluoro-1-(4-(1-methyl-1H-pyrazol-4-yl)benzyl)-N-(oxetan-3-ylmethyl)-1H-indole-3-carboxamide] was tested, and the EC50 [1] was 192 nM and the EC50 [2] was 250 nM.
Molecule Cn1cc(-c2ccc(Cn3cc(C(=O)NCC4CCO4)c4c(F)cccc43)cc2)cn1 (centres unmarked) [Example 14, 4-fluoro-1-(4-(1-methyl-1H-pyrazol-4-yl)benzyl)-N-(oxetan-2-ylmethyl)-1H-indole-3-carboxamide] has an EC50 [1] of 121 nM and an EC50 [2] of 198 nM.
Work on Cn1cc(-c2ccc(Cn3cc(C(=O)N[C@H]4CCC[C@@H]4O)c4c(F)cccc43)c(F)c2)cn1 [Example 17, 4-Fluoro-1-(2-fluoro-4-(1-methyl-1H-pyrazol-4-yl)benzyl)-N-((1S,2S)-2-hydroxycyclopentyl)-1H-indole-3-carboxamide] yielded an EC50 [1] of 100 nM and an EC50 [2] of 169 nM.
Work on Cn1cc(-c2ccc(Cn3cc(C(=O)NC4CCCOC4)c4c(F)cccc43)c(F)c2)cn1 (centres unmarked) [Example 19, 4-fluoro-1-(2-fluoro-4-(1-methyl-1H-pyrazol-4-yl)benzyl)-N-(tetrahydro-2H-pyran-3-yl)-1H-indole-3-carboxamide] yielded an EC50 [1] of 229 nM and an EC50 [2] of 579 nM.
With Cn1cc(-c2ccc(Cn3cc(C(=O)NC4CCCCC4)c4c(F)cccc43)c(F)c2)cn1 [Example 20, N-cyclohexyl-4-fluoro-1-(2-fluoro-4-(1-methyl-1H-pyrazol-4-yl)benzyl)-1H-indole-3-carboxamide] the EC50 [1] was 204 nM and the EC50 [2] was 425 nM.
Cn1cc(-c2ccc(Cn3cc(C(=O)NC4CCOCC4)c4c(F)cccc43)c(F)c2)cn1 [Example 21, 4-fluoro-1-(2-fluoro-4-(1-methyl-1H-pyrazol-4-yl)benzyl)-N-(tetrahydro-2H-pyran-4-yl)-1H-indole-3-carboxamide] was tested, and the EC50 [1] was 60.5 nM and the EC50 [2] was 175 nM.
In the case of Cn1cc(-c2ccc(Cn3cc(C(=O)N[C@H]4COCC[C@@H]4O)c4c(F)cccc43)c(F)c2)cn1 [Example 22, 4-fluoro-1-(2-fluoro-4-(1-methyl-1H-pyrazol-4-yl)benzyl)-N-((3S,4S)-4-hydroxytetrahydro-2H-pyran-3-yl)-1H-indole-3-carboxamide], the EC50 [1] is reported as 17.8 nM and the EC50 [2] is reported as 60.5 nM.
With Cn1cc(-c2ccc(Cn3cc(C(=O)N[C@H]4CCC[C@H]4O)c4c(F)cccc43)c(F)c2)cn1 [Example 24, 4-fluoro-1-(2-fluoro-4-(1-methyl-1H-pyrazol-4-yl)benzyl)-N-((1S,2R)-2-hydroxycyclopentyl)-1H-indole-3-carboxamide] the EC50 [1] was 46.3 nM and the EC50 [2] was 84.5 nM.
Molecule Cn1cc(-c2ccc(Cn3cc(C(=O)N[C@H]4CCCC[C@@H]4O)c4c(F)c(F)c(F)c(F)c43)c(F)c2)cn1 [Example 26, 4,5,6,7-Tetrafluoro-1-(2-fluoro-4-(1-methyl-1H-pyrazol-4-yl)benzyl)-N-((1S,2S)-2-hydroxycyclohexyl)-1H-indole-3-carboxamide] has an EC50 [1] of 80.6 nM and an EC50 [2] of 201 nM.
For Cn1cc(-c2ccc(Cn3cc(C(=O)N[C@H]4CCCC[C@@H]4O)c4c(F)c(F)c(F)c(F)c43)cn2)cn1 [Example 27, 4,5,6,7-tetrafluoro-N-((1S,2S)-2-hydroxycyclohexyl)-1-((6-(1-methyl-1H-pyrazol-4-yl)pyridine-3-yl)methyl)-1H-indole-3-carboxamide], the EC50 [1] was 56 nM and the EC50 [2] was 80.7 nM.
